The assay deals with human AT2 receptor (Homo sapiens (Human), UniProt P50052). The experiment in a line: AT2 receptor binding assay ([125I]CGP 42112A displacement, CHO-K1 cell membranes). To be noted: membranes of CHO-K1 cells stably expressing human AT2 receptor; 0.05 nM [125I]CGP 42112A; Ki derived from IC50 by Cheng-Prussoff equation. The method, then:
Reagents were purchased from Sigma-Aldrich, unless otherwise specified. Dialyzed fetal bovine serum (FBS) was from Life Technologies (cat. no. 10073772). Valiscreen® human angiotensin AT2 receptor cell line (cat. no. ES-070-C), [^125I]CGP 42112A (cat. no. NEX324025UC) and MicroScint™ 40 (cat. no. 6013641) were purchased from PerkinElmer. CGP 42112A (cat. no. 2569) and PD 123,319 ditrifluoroacetate (cat. no. 1361) were from Tocris Biosciences.
6. […] Compound Preparation
Compounds were prepared from 10 mM stock solutions in 100% DMSO. Dilutions were made using electronic multichannel pipettes.
Controls • Total binding (high control) was determined in the absence of unlabelled ligand. A solution of 10% DMSO in assay buffer was prepared. • Non-specific binding (low control) was determined in the presence of a vast excess (10 μM) of PD 123,319. 1 mM stock solution of PD 123,319 in water was diluted […] with 10% DMSO in assay buffer.
15 μL compound solution was transferred to duplicate wells of assay plate. 5 compounds were tested per plate. 15 μL control solutions were transferred to columns 1 and 12 of assay plate.

Ki data for five molecules are collected here from patent publication US10308628B2, “Heterocyclic compounds and methods for their use” (NOVARTIS AG, priority 2015, dated 2019).

Each structure is given as a SMILES string.

Chain of human AT2 receptor (P50052 whole entry): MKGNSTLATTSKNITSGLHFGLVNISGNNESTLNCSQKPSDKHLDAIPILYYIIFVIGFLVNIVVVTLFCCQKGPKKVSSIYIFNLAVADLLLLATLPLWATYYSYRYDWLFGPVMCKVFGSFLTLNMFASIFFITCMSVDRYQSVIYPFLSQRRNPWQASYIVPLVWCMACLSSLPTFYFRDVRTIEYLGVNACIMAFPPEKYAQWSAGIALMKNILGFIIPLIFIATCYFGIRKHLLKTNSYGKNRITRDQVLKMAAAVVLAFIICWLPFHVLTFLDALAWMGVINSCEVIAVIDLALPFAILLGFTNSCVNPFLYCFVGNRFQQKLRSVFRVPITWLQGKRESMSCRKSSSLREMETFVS

On to `COc1ccc2c(c1)CCCCN2[C@@H]1CCN(C(=O)C(c2ccccc2)c2ccccc2)[C@H](C(=O)O)C1` [Compound 5, (2S,4R)-1-(2,2-Diphenylacetyl)-4-(7-methoxy-2,3,4,5-tetrahydro-1H-benzo[b]azepin-1-yl)piperidine-2-carboxylic acid], for which the affinity corresponds to a Ki of 9 nM.

Consider `O=C(O)[C@@H]1C[C@H](N2CCCOc3cc(F)c(F)cc32)CCN1C(=O)C(c1ccccc1)c1ccccc1` [Compound 1, (2S,4R)-4-(7,8-Difluoro-3,4-dihydrobenzo[b][1,4]oxazepin-5 (2H)-yl)-1-(2,2-diphenylacetyl)piperidine-2-carboxylic acid], for which affinity was put at a Ki of 7 nM. The Ki values of the last two molecules are within 1.5-fold of each other.

As to `O=C(O)[C@@H]1C[C@H](N2CCCOc3ccc(F)cc32)CCN1C(=O)C(c1ccccc1)c1ccccc1` [Compound 3, (2S,4R)-1-(2,2-Diphenylacetyl)-4-(7-fluoro-3,4dihydrobenzo[b][1,4]oxazepin-5(2H)-yl)piperidine-2-carboxylic acid], the Ki (usually the dissociation constant of the complex between target and ligand, obtained from inhibition or displacement) amounted to 17 nM.

`O=C(O)[C@@H]1C[C@H](N2CCCOc3ccccc32)CCN1C(=O)C(c1ccccc1)c1ccccc1` [Compound 4, (2S,4R)-4-(3,4-Dihydrobenzo[b][1,4]oxazepin-5(2H)-yl)-1-(2,2-diphenylacetyl)piperidine-2-carboxylic acid] registered an inhibition constant Ki of 15 nM.

The molecule `O=C(O)[C@@H]1C[C@H](N2CCCOc3cc(F)ccc32)CCN1C(=O)C(c1ccccc1)c1ccccc1` [Compound 2, (2S,4R)-1-(2,2-Diphenylacetyl)-4-(8-fluoro-3,4 dihydrobenzo[b][1,4]oxazepin-5(2H)-yl)piperidine-2-carboxylic acid] yielded a Ki of 9 nM.
